Assays:
Format in all cases: in vivo, mouse
[1] = system: KrasLSL-G12D/wt;p53flox/flox (KP) lung tumors; assay: MicroCT lung tumor volume in KP mice
Text: FIG. 3: Bortezomib induces acute lung tumor regression in KrasLSL-G12D/wt;p53flox/flox (KP) mice, but not in KrasLSL-G12D/wt (K) mice. (3A and 3C) representative microCT images (n=6) of KP (3A) and K (3C) lung tumors prior to pre-treatment (D0) and 4 days (D4) after a single dose of vehicle control or bortezomib. (3 B and 3D) Quantification of tumor volume change (D4 compared with D0) in control- and bortezomib-treated mice. Each bar represents an individual tumor. P<10^−6 in KP mice (3B); P>0.05 in K mice (3D).
FIG. 5: Bortezomib increases survival in KP mice. (5A and 5B) Kaplan-Meier survival curve of vehicle control and bortezomib-treated KP (5A) and K (5B) mice. Arrows indicate weekly 1 mg/kg bortezomib regimen. (5C) quantification of lung tumor volume of control- and bortezomib-treated KP mice. From 10 weeks after Adeno-Cre infection, lungs were imaged by microCT to measure individual tumor volumes (n=4). Data points represent means of fold change and SD relative to 10 weeks (set to 1). Arrows indicate bortezomib injection. D, CC3 staining (×200) in lung tumors receiving 3 doses of control (“C”) and 1 final dose of bortezomib (“B,” left) or 4 doses of bortezomib (right). Tumors were harvested 48 hours after the last treatment (n=4).
The Massachusetts Institute of Technology (Cambridge, Mass.) Institutional Animal Care and Use Committee approved all animal studies and procedures. […]
At indicated time points, mice were scanned for 15 min under isoflurane anesthesia, using a small animal eXplore Locus microCT (GE Healthcare) at 45-μm resolution, 80 kV, with 450-mA current (47). […] Mice were imaged for 60 seconds, and signals in the lung were quantified using Xenogen software.
To understand the relevance of these findings in vivo, we examined bortezomib-mediated NF-κB inhibition in both KP and K models of lung cancer. […] Individual lung tumors were monitored using micro-computed tomography (microCT) imaging prior to treatment (D0) and 4 days post treatment (D4). […]

[2] = system: Kras^G120;p53^fl/fl (high NF-κB) mice; assay: FIG. 19 study, mice with high NF-κB; settings: 1 kg/mg IV bortezomib
Description: FIG. 19 is a schetaic diagram showing the experimental conditions and a set of graphs showing the results. Two sets of mice were treated with […] IV bortezomib, Kras^G120;p53^fl/fl (high NF-κB, top panel) or KrasL^St-G12Dwt (low NF-κB, bottom panel). […] The relapsed tumors have high Hmcgs2.
Mice having either high or low levels of NF-κB were treated with […] IV bortezomib and examined for tumor progression, apoptosis and survival. The mice are Kras^G120;p53^fl/fl (high NF-κB) or KrasL^St-G12Dwt (low NF-κB). […] The relapsed tumors have high Hmcgs2.

[3] = system: luciferase-tagged KP cells transplanted into immunocompetent recipient mice; assay: Orthotopic lung tumor model, survival and bioluminescence imaging
Text: FIG. 6: Imaging bortezomib response and resistance in an orthotopic lung tumor model. (6A) experimental design. Lung cancer cells derived from KP tumors were infected with a retrovirus expressing luciferase and transplanted into immunocompetent recipient mice by tail vein injection. (6B) Kaplan-Meier survival curve of control and bortezomib-treated recipient mice (n=6; P=1.4×10−5). A total of 10,000 cells were transplanted, and treatment started after 35 days. (6C) representative bioluminescence imaging of recipient mice (n=6) treated with vehicle control or bortezomib, as in 6B. D0 refers to the first treatment. Arrows indicate weekly bortezomib regimen.
FIG. 7: The NF-κB inhibitor Bay-117082 leads to lung tumor regression in vivo. (7A) quantitative PCR analysis of NF-κB target gene expression in KP cells treated with 10 μM Bay-117082 for indicated hours. Error bars are SD (n=3). (7B) Bay-117082 treatment leads to lung tumor regression and delays tumor progression in the orthotopic lung tumor model. A total of 50,000 luciferase-tagged KP cells were transplanted into recipient mice (n=6), and treatment was started at 19 days after transplantation (set at D0). Mice were treated with vehicle control or 10 mg/kg Bay-117082 by i.p. injection, and imaged at the indicated time points. Arrows indicate Bay-117082 injections. (7C) Bay-117082 prolongs survival in the KP model (n=6; P=0.008). “i.p. dosing” indicates treatment with 3 doses per week.
At indicated time points, mice were scanned for 15 min under isoflurane anesthesia, using a small animal eXplore Locus microCT (GE Healthcare) at 45-μm resolution, 80 kV, with 450-mA current (47). Images were acquired and processed using GE eXplore software. Bioluminescence imaging was performed as previously described (48). Mice were imaged for 60 seconds, and signals in the lung were quantified using Xenogen software.
To facilitate imaging of the bortezomib treatment response, we adapted a transplantation-based orthotopic lung cancer mouse model (37). As outlined in FIG. 6A, we infected KP cell lines with a retrovirus expressing firefly luciferase. The cells were transplanted into immunocompetent recipient mice by i.v. injection, resulting in the development of in situ lung tumors that could be imaged and quantified by bioluminescence imaging.
To determine whether bortezomib therapy was effective in the orthotopic model, we transplanted 10,000 KP cells into host mice and treated the mice 5 weeks later, either with control or with a weekly 4-dose regimen of bortezomib (37).

[4] = orthotopic model, weekly bortezomib

CC(C)C[C@H](NC(=O)[C@H](Cc1ccccc1)NC(=O)c1cnccn1)B(O)O [bortezomib, N-(2-pyrazine) carbonyl-L-phenylalanine-L-leucine boronic acid]
tumor response by the 4th dose ([1]; once a week for 4 weeks, 13 weeks): insensitive to treatment | tumor response after the first dose ([1]; once a week for 4 weeks, twice-weekly microCT, 10.5 weeks): rapid KP tumor regression | average decrease in tumor volume at D4 compared with D0 ([1]; single dose 1 mg/kg i.v., 10 weeks after Adeno-Cre infection, microCT): 55.4% | tumor response, apoptosis and survival (FIG. 19) [2]: rapid tumor progression, apoptosis, and increased survival | average survival ([3]; 10,000 KP cells transplanted, weekly 4-dose bortezomib from 5 weeks, control 47.0±2.0 days, P=1.4×10^−5): 64.0 ± 5.4 days | bioluminescence tumor signal at day 2 and day 4 ([3]; orthotopic model, after first bortezomib treatment): marked tumor regression | effect of a 4th dose [3, 4]: ineffective | lung tumor signal after the 2nd and 3rd treatments [3, 4]: still decreased or stabilized

From patent publication US20150150892A1, “METHODS AND PRODUCTS RELATED TO LUNG CANCER” (Massachusetts Institute of Technology, priority 2012, published 2015)
